Measurements published in US20040192738A1, “2-(Butyl-1-sulfonylamino)-N-[1(R)-(6-methoxypyridin-3-yl)propyl] benzamide, its use as a medicament, and pharmaceutical preparations comprising it” (Aventis Pharma Deutschland GmbH, priority 2003, published 2004).
Where “and” joins values, the source holds several entries; their conditions need not be identical. Equal entries are not always repeated.

Key:
[1] = tested on: left atrium of the anesthetized pig; assay: Refractory period and left-atrial vulnerability in the anesthetized pig; format: in vivo; conditions: for % inhibition of the arrhythmias: arrhythmias induced by premature extra-stimulus (S2) in the left atrium, 3 mg/kg; for % inhibition of the arrhythmias / % increase in the refractory period: mean value; for % increase in the refractory period: left atrium, 10 minutes after injection, mean of three rates (150, 200 and 250/min); for antiarrhythmic action: model on the anesthetized pig
Protocol: Investigation of the Refractory Period and the Left-Atrial Vulnerability in the Pig
In the course of this, the refractory period of the left atrium was determined and the antiarrhythmic activity was recorded as described in the literature (Knobloch et al. 2002. Naunyn-Schmiedberg's Arch. Pharmacol. 366; 482-487). The anti-arrhythmic action relates here to the inhibition of the occurrence of episodes of arrhythmias which are induced by a prematurely placed extra-stimulus (S2) in the left atrium (=left-atrial vulnerability).
The refractory period values are stated in percent of the basal values 10 minutes after injection. Mean values for the refractory periods are shown from three rates (150, 200 and 250/min).
By repeated measurement after substance administration, the duration of action of a substance on the refractory period can be determined in this experimental procedure. The R enantiomer was infused intravenously over the course of 100 minutes in a dose of 1 mg/kg and the pharmacological action was determined over the course of 280 minutes.

[2] = Effect on QTc interval and inotropic or hemodynamic side effects; conditions: in vivo
[3] = anesthetized pig, bolus 3 mg/kg

CCCCS(=O)(=O)Nc1ccccc1C(=O)N[C@@H](CC)c1ccc(OC)nc1 [S enantiomer, 2-(butyl-1-sulfonylamino)-N-[1(S)-(6-methoxypyridin-3-yl)propyl]benzamide]
% inhibition of the arrhythmias [1, 3]: 27% and 27.3% | % increase in the refractory period [1, 3]: 8.8% | antiarrhythmic action ([1]; result in words): more weakly active

CCCCS(=O)(=O)Nc1ccccc1C(=O)N[C@H](CC)c1ccc(OC)nc1 [formula I, 2-(butyl-1-sulfonylamino)-N-[1(R)-(6-methoxypyridin-3-yl)propyl]benzamide]
effect on the QTc interval [2]: no effect | negative inotropic or hemodynamic side effects [2]: no negative inotropic or hemodynamic side effects | duration of action on the left-atrial refractory period after ending the infusion ([1]; anesthetized pig, 1 mg/kg intravenous infusion over 100 minutes, observed over 280 minutes, FIG. 1): ≥ 180 min | % inhibition of the arrhythmias ([1]; anesthetized pig, bolus 3 mg/kg, listed as R enantiomer): 73.9% | prolongation of the refractory period (comparison of enantiomers) ([1]; anesthetized pig, bolus 3 mg/kg, result in words): markedly greater prolongation of the refractory period than the S enantiomer | % increase in the refractory period [1, 3]: 19% | antiarrhythmic action ([1]; result in words): excellent | melting point: 97 °C
